Measured values from US20210196738A1, “PHARMACEUTICAL COMPOSITION COMPRISING A COLLOIDAL DISPERSION AND A THERAPEUTIC AGENT AND METHODS AND USES THEREOF” (priority 2017, published 2021).
Entries after “also recorded” stand apart in the source; their conditions may differ. Like-named read-outs stand apart in the source and are kept apart here.

What was measured:
[1] = system: Staphylococcus aureus USA300 JE2 (DA28823); experiment: AgSol-antibiotic synergy screening assay / MIC; type: cell-based; conditions: for effect of antibiotic when adding AgSol: S. aureus (USA300 JE2), FIGS. 4 and 5; for MIC: Staphylococcus aureus, USA300, antibiotic alone, S. aureus (DA28823), values used for antibiotic gradient
Description: (§1) The MIC (Minimal Inhibitory Concentration) of a bacterium to a certain antimicrobial agent gives a quantitative estimate of the susceptibility. MIC is defined as the lowest concentration of antimicrobial agent required to inhibit growth of the organism. The principle is simple: Agar plates, tubes or microtitre trays with two-fold dilutions of antibiotics are inoculated with a standardized inoculum of the bacteria and incubated under standardized conditions following NCCLS guidelines. The next day, the MIC is recorded as the lowest concentration of antimicrobial agent with no visible growth. The MIC informs you about the degree of resistance and might give you important information about the resistance mechanism and the resistance genes involved. MIC-determination performed as agar dilution is regarded as the gold standard for susceptibility testing (Source: Global Salm-Surv—A global Salmonella surveillance and laboratory support project of the World Health Organization (4th Ed. April 2002, modified November 2010))
(§2) The Minimum Inhibitory Concentration (MIC) of nanosilver (silver) was determined by two-fold dilution series in NaCl free Nutrient Broth (Sigma-Aldrich) in 15 ml screw cap tubes. The tubes were incubated in the dark over night at 37° C. without shaking. The MIC was determined as the lowest concentration of nanosilver (silver) at which no visible growth was observed.
(§3) Antibiotic stock solutions were serially diluted in 2-fold steps in pre-warmed (37° C.) nutrient broth (NB) to prepare an antibiotic concentration gradient above and below the minimal inhibitory concentration (MIC) of antibiotic (Table 4). 50 μl of prepared dilutions were aliquoted into a 96-well round bottom plate (Nunc, Thermo Fisher) for the screening assay.
(§4) Silver formulation (AgSol1000 (particles with 19 Ag per silica particle), AgSol300 (particles with 6 Ag per silica particle, AgNO3), aluminum coated silica beads (159/500 (silica particles with aluminium silicate coating)) and uncoated silica beads (15/500) were diluted in pre-warmed (37° C.) NB. Bindzil®15/500 is an unmodified silica sol, whereas Bindzil®159/500 is a aluminosilicate modified silica sol. Bindzil® is sold by Akzo Nobel AB.
(§5) 40 μl of the prepared dilutions were added to the 96-well plate containing antibiotic gradient to reach the final silver concentration of ¼×MICAgSol (silver) (specific for the microorganism used) (Table 5).
(§6) Overnight (16-20 h) cultures of 3 biological replicates of the following microorganisms E. coli K-12 MG1655 (DA4201), E. coli K-12 MG1655 rpsL K42N (DA49828), Pseudomonas aeruginosa PAO1 (DA6215) or Staphylococcus aureus USA300 JE2 (DA28823) were grown in NB till saturation (37° C. incubator with 190 rpm shaking). Cultures were diluted in NB to 10^7 CFU/ml and 10 μl of the dilution were added to the 96-well plate containing antibiotic gradient and silver formulations or the bead controls to reach the final concentration of 10^5 CFU/well in 100 μl total volume per well. 3 technical replicates (3 wells) of specific antibiotic concentration in combination with silver and microorganism were used. A control plate containing bacterial cells mixed with only antibiotic gradient was always included too.
(§7) The prepared plate was incubated in 37° C. incubator without shaking in the dark for 16-20 h and the optical density (OD620) of each well was measured in plate reader Multiscan FC (Thermo Fisher).

[2] = system: Staphylococcus aureus USA300 JE2 (DA28823); experiment: Time-kill assay; type: cell-based; conditions: antibiotic 2×MIC, silver ¼×MIC; FIG. 7A-B
Description: (§8) Antibiotic stock solutions were diluted in pre-warmed (37° C.) nutrient broth (NB) to prepare 2×MIC concentration (Table 4) of antibiotic in the final volume of 2 ml in 15 ml tubes (Sarstedt).
(§9) Silver formulation (AgSol1000, AgNO3) was diluted in pre-warmed (37° C.) NB and added to the tube containing antibiotic to reach the final silver concentration of ¼×MICAgsol (silver) (Table 5) in the final volume of 2 ml.
(§10) Overnight (16-20 h) cultures of 2 biological replicates of the following microorganisms Pseudomonas aeruginosa PAO1 (DA6215) or Staphylococcus aureus USA300 JE2 (DA28823) were grown in NB till saturation (37° C. incubator with 190 rpm shaking). Cultures were diluted (1/100) in pre-warmed (37° C.) NB and incubated in 37° C. incubator with 190 rpm shaking until they reached exponential growth phase (OD600˜0.2). Final concentration of approximately 10^6 CFU/ml of exponentially dividing cells was used in the total volume of 2 ml mixture of antibiotic and silver formulation. Control tubes with only bacterial cells or bacterial cells mixed with only antibiotic or only silver formulation were also used.
(§11) All tubes were incubated in 37° C. water bath with 150 rpm shaking and 100 μl samples were taken out at pre-determined time points for viable counts (2 technical replicates). CFU counts were normalized to the 0 h sample and were plotted as a function of time (h).
(§12) A “Time Kill” test was performed with S. aureus USA3000 JE2 and Fusidic acid (FUS) and Mupirocin (MUP) and with P. aeruginosa (PAO1) with gentamicin (GEN). From a stock solution with bacteria with controlled growth at 37° C. during 16 h, […] were prepared: • Bacterial cells • Bacterial cells+AgSol • Bacterial cells+AgNO3; • Bacterial cells+AgSol+antibiotic • Bacterial cells+AgNO3+antibiotic
(§13) Samples were taken after 0, 4, 8, 24 and 48 hours at 37° C. (incubation with shaking). The samples were plated for viable counts, CFU counts normalized to 0 h and plotted as a function of time.

[3] = system: E. coli K-12 MG1655 (DA4201); experiment: AgSol-antibiotic synergy screening assay / MIC (Ag/Antibiotic screen); type: cell-based, Escherichia coli; conditions: for Antibiotic MIC, NB + AgSol1000: antibiotic in combination with AgSol1000 at ¼ × MIC silver; for fold increase in effect with AgSol vs antibiotic alone: Table 6, E. coli; for Fold change (antibiotic MIC, NB vs NB + AgSol1000): dash = MIC unchanged
Description: as §1, §2, §3, §4, §5, §6, §7

[4] = system: Salmonella enterica Typhimurium LT2; experiment: Highly sensitive competition experiments (resistant vs wild type); type: cell-based; conditions: 50% sensitive / 50% Streptomycin-resistant bacteria; silver at 0.25×MIC; FIG. 1
Description: as §2

[5] = system: S. enterica Typhimurium LT2; experiment: AgSol-antibiotic synergy screening assay; type: cell-based, Salmonella enterica; conditions: Streptomycin or Rifampicin; FIGS. 2A-2F
Description: as §3, §4, §5, §7

[6] = system: Pseudomonas aeruginosa PAO1 (DA6215); experiment: AgSol-antibiotic synergy screening assay / MIC; type: cell-based
Description: as §1, §2, §3, §4, §5, §6, §7

[7] = system: gentamicin-resistant P. aeruginosa (DA60255); experiment: AgSol-antibiotic synergy screening assay / MIC, gentamicin-resistant strain; type: cell-based, Pseudomonas aeruginosa; conditions: AgSol1000 at 0.25×MIC; FIG. 9
[8] = system: Pseudomonas aeruginosa PAO1 (DA6215); experiment: Time-kill assay; type: cell-based; conditions: for time-kill: effect of gentamicin in combination with AgSol: 0-48 h, FIGS. 8A, 8B
Description: as §8, §9, §10, §11, §12, §13

[9] = Escherichia coli, MG1655, antibiotic alone, E. coli (DA4201), values used for antibiotic gradient, read-out: MIC
[10] = Escherichia coli, MG1655, antibiotic alone, nutrient broth, read-out: Antibiotic MIC, NB

## CC(=O)O[C@H]1C[C@@]2(C)[C@@H](C[C@@H](O)[C@H]3[C@@]4(C)CC[C@@H](O)[C@@H](C)[C@@H]4CC[C@@]32C)/C1=C(\CCC=C(C)C)C(=O)O [Fusidic acid]
[1]
  effect of antibiotic when adding AgSol: synergistic anti-bacterial effect; also recorded: there was an effect
  MIC: 0.12 µg/mL
[2]
  time-kill: action of antibiotic in combination with AgSol: bacteriostatic

## CC[C@H]1OC(=O)[C@H](C)[C@@H](O[C@H]2C[C@@](C)(OC)[C@@H](O)[C@H](C)O2)[C@H](C)[C@@H](O[C@@H]2O[C@H](C)C[C@H](N(C)C)[C@H]2O)[C@](C)(O)C[C@@H](C)C(=O)[C@H](C)[C@@H](O)[C@]1(C)O [Erythromycin]
[3]; [9]
  MIC: 48 µg/mL
[3]; [10]
  MIC: 48 µg/mL
[3]; nutrient broth
  Antibiotic MIC, NB + AgSol1000: 48 µg/mL

## O=[N+]([O-])[O-].[Ag+] [AgNO3, silver nitrate]
[4]
  effect of silver source in combination with Streptomycin: synergistic effect
[5]
  effect of silver formulation in combination with antibiotics vs silica particles 159/500 and 15/500: improved effect

## NC[C@H]1O[C@H](O[C@H]2[C@H](O)[C@@H](O[C@H]3O[C@H](CO)[C@@H](O)[C@H](N)[C@H]3O)[C@H](N)C[C@@H]2N)[C@H](N)C[C@@H]1O [Tobramycin]
[3]; [9]
  MIC: 0.75 µg/mL
[3]; [10]
  MIC: 0.75 µg/mL
[3]
  fold increase in effect with AgSol vs antibiotic alone: 16 fold
  Fold change (antibiotic MIC, NB vs NB + AgSol1000): 16x
[3]; nutrient broth
  Antibiotic MIC, NB + AgSol1000: 0.047 µg/mL

## CN(C)[C@@H]1C(O)=C(C(N)=O)C(=O)[C@@]2(O)C(O)=C3C(=O)c4c(O)cccc4[C@@](C)(O)[C@H]3C[C@@H]12 [Tetracycline]
[3]; [9]
  MIC: 1 µg/mL
[3]; [10]
  MIC: 0.5 µg/mL
[3]; nutrient broth
  Antibiotic MIC, NB + AgSol1000: 0.5 µg/mL

## NC[C@H]1O[C@H](O[C@H]2[C@H](O)[C@@H](O[C@H]3O[C@H](CO)[C@@H](O)[C@H](N)[C@H]3O)[C@H](N)C[C@@H]2N)[C@H](O)[C@@H](O)[C@@H]1O [Kanamycin]
[3]; [9]
  MIC: 0.5 µg/mL
[3]; [10]
  MIC: 0.5 µg/mL
[3]; nutrient broth
  Antibiotic MIC, NB + AgSol1000: 0.12 µg/mL
[3]
  Fold change (antibiotic MIC, NB vs NB + AgSol1000): 4x

## CN[C@@H]1[C@H](O)[C@H](NC)[C@H]2O[C@@]3(O)C(=O)C[C@@H](C)O[C@H]3O[C@@H]2[C@H]1O [Spectinomycin]
[3]; [9]
  MIC: 12 µg/mL
[3]; [10]
  MIC: 12 µg/mL
[3]; nutrient broth
  Antibiotic MIC, NB + AgSol1000: 6 µg/mL
[3]
  Fold change (antibiotic MIC, NB vs NB + AgSol1000): 2x

## O=C(O)c1cn(C2CC2)c2cc(N3CCNCC3)c(F)cc2c1=O [Ciprofloxacin]
[3]; [9]
  MIC: 0.012 µg/mL
[3]; [10]
  MIC: 0.012 µg/mL
[3]; nutrient broth
  Antibiotic MIC, NB + AgSol1000: 0.012 µg/mL

## CC1(C)S[C@@H]2[C@H](NC(=O)[C@H](N)c3ccccc3)C(=O)N2[C@H]1C(=O)O [Ampicillin]
[3]; [9]
  MIC: 4 µg/mL
[3]; [10]
  MIC: 4 µg/mL
[3]; nutrient broth
  Antibiotic MIC, NB + AgSol1000: 2 µg/mL
[3]
  Fold change (antibiotic MIC, NB vs NB + AgSol1000): 2x

## C/C(=C\C(=O)OCCCCCCCCC(=O)O)C[C@@H]1OC[C@H](C[C@@H]2O[C@H]2[C@@H](C)[C@H](C)O)[C@@H](O)[C@H]1O [Mupirocin]
[1]
  effect of antibiotic when adding AgSol: synergistic anti-bacterial effect; also recorded: there was an effect
  MIC: 0.12 µg/mL
[2]
  time-kill: action of antibiotic in combination with AgSol: bacteriostatic

## CO[C@H]1/C=C/O[C@@]2(C)Oc3c(C)c(O)c4c(O)c(c(/C=N/N5CCN(C)CC5)c(O)c4c3C2=O)NC(=O)/C(C)=C\C=C\[C@H](C)[C@H](O)[C@@H](C)[C@@H](O)[C@@H](C)[C@H](OC(C)=O)[C@@H]1C [Rifampicin]
[3]; [9]
  MIC: 3 µg/mL
[3]; [10]
  MIC: 3 µg/mL
[3]; nutrient broth
  Antibiotic MIC, NB + AgSol1000: 3 µg/mL

## Gentamicin
[3]; listed as Gentamycin
  fold increase in effect with AgSol vs antibiotic alone: 17 fold
[3]; antibiotic alone, E. coli (DA4201), values used for antibiotic gradient
  MIC: 0.5 µg/mL
[3]; antibiotic alone, nutrient broth
  Antibiotic MIC, NB: 0.5 µg/mL
[3]; nutrient broth
  Antibiotic MIC, NB + AgSol1000: 0.03 µg/mL
[3]
  Fold change (antibiotic MIC, NB vs NB + AgSol1000): 17x
[6]; P. aeruginosa (PAO1), FIG. 3
  synergistic effect of gentamicin in combination with AgSol: −50%
[6]; P. aeruginosa, FIGS. 3, 8, 9
  synergistic anti-bacterial effect of antibiotic in combination with colloidal dispersion: synergistic anti-bacterial effect
[6]; antibiotic alone, P. aeruginosa (DA6215), values used for antibiotic gradient
  MIC: 0.375 µg/mL
[6]; gentamicin 0.19 ug/ml with silver
  effect on bacteria (OD620) of combination silver/gentamicin: complete killing of bacteria
[6]; gentamicin 0.19 ug/ml without silver
  effect on OD620 of gentamicin alone: almost no reduction in OD620
[7]
  anti-bacterial effect of AgSol and gentamycin on resistant strain: confirmed the anti-bacterial effect
[8]
  time to almost complete killing (bactericidal effect), gentamicin in combination with AgSol: ≤ 24 h
  time-kill: effect of gentamicin in combination with AgSol: no bacterial growth is visible within 48 hours
[8]; listed as GEN
  time-kill: effect of gentamicin in combination with AgSol: even stronger bactericidal effect

## CO/N=C(\C(=O)N[C@@H]1C(=O)N2C(C(=O)O)=C(COC(C)=O)CS[C@H]12)c1csc(N)n1 [Cefotaxime]
[3]; [9]
  MIC: 0.094 µg/mL
[3]; [10]
  MIC: 0.094 µg/mL
[3]; nutrient broth
  Antibiotic MIC, NB + AgSol1000: 0.047 µg/mL
[3]
  Fold change (antibiotic MIC, NB vs NB + AgSol1000): 2x

## O=C(N[C@H](CO)[C@H](O)c1ccc([N+](=O)[O-])cc1)C(Cl)Cl [Chloramphenicol]
[3]; [9]
  MIC: 3 µg/mL
[3]; [10]
  MIC: 3 µg/mL
[3]; nutrient broth
  Antibiotic MIC, NB + AgSol1000: 1.5 µg/mL
[3]
  Fold change (antibiotic MIC, NB vs NB + AgSol1000): 2x
